Source: patent US12187728B2 (Raze Therapeutics, Inc., priority 2015, dated 2025)

Target: T1, Human MTHFD2 (Homo sapiens, UniProt P13995)
T1 construct: residues 36-350 in Uniport ID P13995; His6 (N); made in house; host or cells: E. coli
T1 sequence (P13995 36-350): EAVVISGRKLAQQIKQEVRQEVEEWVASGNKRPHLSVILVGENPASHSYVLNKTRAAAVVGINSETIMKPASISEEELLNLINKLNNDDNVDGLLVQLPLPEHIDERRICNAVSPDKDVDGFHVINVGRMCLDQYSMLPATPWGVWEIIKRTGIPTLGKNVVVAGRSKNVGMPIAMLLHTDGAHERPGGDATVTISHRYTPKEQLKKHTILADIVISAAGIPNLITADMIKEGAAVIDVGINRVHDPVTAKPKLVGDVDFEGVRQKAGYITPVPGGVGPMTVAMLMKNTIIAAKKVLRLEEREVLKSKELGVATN
Assay: MTHFD2 Activity Assay (dehydrogenase activity, diaphorase/resazurin coupled fluorescence)
Type: biochemical
Details: inhibitory activity (IC50 and/or binding constant); 0.2 nM MTHFD2, 11 concentrations
Procedure, shortened: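 Resorufin fluorescence (ex 525, em 598 nm) reports NADH formed by the dehydrogenase via diaphorase coupling. Enzyme (0.2 nM, residues 36-350, N-His6) sat with compound 15 min before 70 μM CH2-THF and 1 mM NAD+ started a 30 min reaction. IC50s come from 4-parameter fits over 11 concentrations.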

Structure (SMILES)	IC50 [µM]
COc1ccc(Cn2c(=O)c3c(nc(NC[C@H](C)O)n3C)n(C)c2=O)cc1 [Example 34, 8-{[(2S)-2-hydroxypropyl]amino}-1-[(4-methoxyphenyl)methyl]-3,7-dimethyl-2,3,6,7-tetrahydro-1H-purine-2,6-dione]	> 10
Cn1c(C2CCNC2)nc2c1c(=O)n(Cc1[nH]c3cccc(Cl)c3c1Cl)c(=O)n2C (stereo not shown) [Example 423, 1-((3,4-dichloro-1H-indol-2-yl)methyl)-3,7-dimethyl-8-(pyrrolidin-3-yl)-1H-purine-2,6(3H,7H)-dione]	0.01 to 1
Cn1cnc2c1c(=O)n(Cc1cc3cc(Cl)ccc3n1C)c(=O)n2C [Example 242, 1-((5-chloro-1-methyl-1H-indol-2-yl)methyl)-3,7-dimethyl-1H-purine-2,6(3H,7H)-dione]	1 to 5
Cn1c(Nc2cccc(-c3ccccc3)n2)nc2c1c(=O)n(Cc1cc3c(Cl)cccc3[nH]1)c(=O)n2C [Example 399, 1-[(4-chloro-1H-indol-2-yl)methyl]-3,7-dimethyl-8-[(6-phenyl-2-pyridyl)amino]purine-2,6-dione]	1 to 5
Cn1c(Nc2ccnc(CN)n2)nc2c1c(=O)n(Cc1cc3c(Cl)cccc3[nH]1)c(=O)n2C [Example 469, 8-(2-(aminomethyl)pyrimidin-4-ylamino)-1-((4-chloro-1H-indol-2-yl)methyl)-3,7-dimethyl-1H-purine-2,6(3H,7H)-dione]	0.01 to 1
CCc1cccc2[nH]c(Cn3c(=O)c4c(nc(Nc5ccncc5)n4C)n(C)c3=O)cc12 [Example 387, 1-((4-ethyl-1H-indol-2-yl)methyl)-3,7-dimethyl-8-(pyridin-4-ylamino)-1H-purine-2,6(3H,7H)-dione]	0.01 to 1
Cn1c(NCC2(O)CCCCC2)nc2c1c(=O)n(Cc1ccc(C(F)(F)F)cc1)c(=O)n2C [Example 107, 8-((1-hydroxycyclohexyl)methylamino)-3,7-dimethyl-1-(4-(trifluoromethyl)benzyl)-1H-purine-2,6(3H,7H)-dione]	> 10
Cn1c(N[C@H]2CCCNC2=O)nc2c1c(=O)n(Cc1cc3ccccc3[nH]1)c(=O)n2C [Example 213, (S)-1-((1H-indol-2-yl)methyl)-3,7-dimethyl-8-(2-oxopiperidin-3-ylamino)-1H-purine-2,6(3H,7H)-dione]	0.01 to 1

The next lines start with the values.

IC50 [µM]	Structure (SMILES)
1 to 5	Cn1c(N[C@H]2CC[C@H](N)CC2)nc2c1c(=O)n(Cc1ccc(Cl)c(Cl)c1)c(=O)n2C [Example 38, (±)-1-[(3,4-dichlorophenyl)methyl]-3,7-dimethyl-8-{[(trans)-4-aminocyclohexyl]amino}-2,3,6,7-tetrahydro-1H-purine-2,6-dione]
0.01 to 1	Cn1c(N[C@H]2C[C@@H](O)C2)nc2c1c(=O)n(Cc1ccc(Cl)c(Cl)c1)c(=O)n2C [Example 66, 1-[(3,4-dichlorophenyl)methyl]-3,7-dimethyl-8-{[(cis)-3-hydroxycyclobutyl]amino}-2,3,6,7-tetrahydro-1H-purine-2,6-dione]
1 to 5	COCC1CCC(Nc2nc3c(c(=O)n(Cc4ccc(Cl)c(Cl)c4)c(=O)n3C)n2C)C1 (stereo not shown) [Example 267, 1-(3,4-dichlorobenzyl)-8-(3-(methoxymethyl)cyclopentylamino)-3,7-dimethyl-1H-purine-2,6(3H,7H)-dione]
0.01 to 1	Cn1c(N[C@H]2CCC[C@H](C(=O)O)C2)nc2c1c(=O)n(Cc1ccc(Cl)c(Cl)c1)c(=O)n2C (single isomer, unassigned) [Example 186, (1S,3S)-3-(1-(3,4-dichlorobenzyl)-3,7-dimethyl-2,6-dioxo-2,3,6,7-tetrahydro-1H-purin-8-ylamino)cyclohexanecarboxylic or (1R,3R)-3-(1-(3,4-dichlorobenzyl)-3,7-dimethyl-2,6-dioxo-2,3,6,7-tetrahydro-1H-purin-8-ylamino)cyclohexanecarboxylic acid]
0.01 to 1	Cn1c(N[C@H]2CC[C@@H](O)C2)nc2c1c(=O)n(Cc1cc3cc(Cl)ccc3[nH]1)c(=O)n2C (racemic) [Example 175, (±)-1-((5-chloro-1H-indol-2-yl)methyl)-8-((cis)-3-hydroxycyclopentylamino)-3,7-dimethyl-1H-purine-2,6(3H,7H)-dione]
